# T1: renal PTH receptors (Homo sapiens, UniProt Q03431)
# T1 sequence (Q03431 27-593): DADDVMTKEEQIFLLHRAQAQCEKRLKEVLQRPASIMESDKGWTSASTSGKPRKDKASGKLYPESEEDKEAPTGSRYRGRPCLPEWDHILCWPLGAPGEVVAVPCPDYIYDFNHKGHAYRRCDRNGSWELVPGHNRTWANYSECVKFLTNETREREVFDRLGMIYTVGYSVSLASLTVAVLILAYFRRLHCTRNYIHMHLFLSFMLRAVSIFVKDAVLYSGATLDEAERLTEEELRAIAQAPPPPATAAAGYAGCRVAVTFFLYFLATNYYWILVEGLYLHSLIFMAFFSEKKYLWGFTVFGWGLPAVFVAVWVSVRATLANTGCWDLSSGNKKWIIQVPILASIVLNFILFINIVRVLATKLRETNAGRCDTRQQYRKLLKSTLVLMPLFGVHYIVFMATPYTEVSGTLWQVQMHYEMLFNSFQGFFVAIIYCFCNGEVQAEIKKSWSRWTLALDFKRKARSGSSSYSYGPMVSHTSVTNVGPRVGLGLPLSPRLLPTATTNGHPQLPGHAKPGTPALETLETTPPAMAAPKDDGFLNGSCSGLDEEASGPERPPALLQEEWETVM
# Key:
# C-1498/GFP cells [1] = assay: Recombinant OPN on C-1498/GFP leukemia cell growth in vitro; assay type: cell-based, mouse
# Method: (§1) To investigate the role of OPN as a candidate molecule, it was explored whether recombinant OPN is sufficient to reproduce the growth inhibition of leukemia cells in vitro. To this end, C-1498/GFP cells were cultured in wells with either (a) no OPN, (b) with 5 and 10 ug/ml of OPN. […] It was therefore concluded that recombinant osteopontin is sufficient to limit leukemic cell expansion. […] Given that PTH increases osteoblast production of OPN, it is likely that OPN participates in the preferential support of normal over leukemic cells in vivo with PTH stimulation of the stem cell niche.
# C-1498/GFP cells [2] = assay: Annexin staining of leukemia cells cultured with OPN; assay type: cell-based, mouse; conditions: FIG. 13a
# Method: as §1
# [3] = test system: PTH-stimulated adenylate cyclase; conditions: cited from earlier work
# renal PTH receptors = target: T1, renal PTH receptors; conditions: cited from earlier work
# peripheral blood cells = assay: Complete blood count during cyclophosphamide chemotherapy cycles; assay type: in vivo, C57Bl/6 mice; conditions: cyclophosphamide 5 mg per cycle, G-CSF 5 μg/day 8 days
# Method: (§2) Wild-type C57Bl/6 mice were treated with 5 mg of cyclophosphamide (Day 1). The day following injection of cyclophosphamide, mice received no treatment or were treated for 8 days with G-CSF (5 μg/day), 11 days with PTH (80 μg/kg/day) or a combination of G-CSF plus PTH. Mice that received a combination of both G-CSF and PTH received G-CSF treatment for 8 days and PTH treatment for 11 days. Following this treatment protocol, mice were injected with cyclophosphamide on Day 15 and treated with G-CSF, PTH or G-CSF and PTH as described above. The treatment protocol was then repeated for two subsequent cycles, as outlined in FIG. 7.
# During the course of the four treatment cycles, peripheral blood complete blood count (CBC) analysis was performed every 2 to 3 days. This analysis involved the collection of 100 μl of peripheral blood from the tail vein of the mice, which was subsequently analyzed on a HEMAVET 850FS (Drew Scientific). To avoid any deleterious effects from repeated tail bleeds, each individual mouse was only bled once per week.
# [4] = test system: HSC pool in the bone marrow; assay: HSC pool in bone marrow following chemotherapy (competitive transplant); assay type: in vivo, C57Bl/6 mice; conditions: G-CSF alone
# Method: as §2
# (§3) At the end of the four-cycle treatment with cyclophosphamide and G-CSF/PTH, the bone marrow was removed from the treated mice and competitive transplants into B6.SJL mice were performed to measure the maintenance of the HSC pool in the bone marrow. This involved mixing 5×10^5 BM cells from the treated C57Bl/6 mice (CD45.2) with 2.5×10^5 BM cells from the B6.SJL mice (CD45.1). These cells were then injected into lethally irradiated B6.SJL mice. Eighteen weeks following injection of the cells, peripheral blood was collected from the mice and the relative contribution of the HSCs from the treated animals was measured by flow cytometry for the CD45.2^+ cells. To assess the ability of the HSCs to be mobilized into the peripheral circulation, one week following treatment mice were mobilized with G-CSF (5 μg/day) for 5 days. Peripheral blood (300 μl) was collected from these mice and mixed with 2.5×10^5 BM cells from a B6.SJL mouse. These cells were injected into a lethally irradiated B6.SJL host. Eighteen weeks following injection of the cells, peripheral blood was collected from the mice and the relative contribution of the HSCs from the treated animals was measured by flow cytometry for the CD45.2^+ cells.
# [5] = test system: HSCs in the peripheral circulation; assay: G-CSF mobilization of HSCs into peripheral circulation after chemotherapy; assay type: in vivo, C57Bl/6 mice; conditions: supportive growth factor therapy alone during chemotherapy
# Method: as §2, §3
molecule,measurement,setting,value
Osteopontin [OPN],inhibition of leukemia cell growth,"C-1498/GFP cells [1]; 5 and 10 ug/ml OPN, FIG. 13b",sufficient to reproduce the inhibition of leukemia cell growth
same,relative ability to limit primitive cell expansion,C-1498/GFP cells [1]; leukemic vs normal cells,greater in leukemic compared to normal cells
same,Annexin staining (mode of effect),C-1498/GFP cells [2],growth inhibition rather than accelerated apoptosis
"PTH(1-25) (SVSEIQLMHNLGKHLNSMERVEWLR; Parathyroid hormone; UniProt P01270 32-56, looked up, fragment) [carboxyl-terminally truncated PTH fragment]",agonist activity,[3],inactive
PTH(1-34),agonist activity,[3],full agonist
"PTH(25-34) (RKKLQDVHNF; Parathyroid hormone; UniProt P01270 56-65, looked up, fragment)",receptor binding / affinity,renal PTH receptors,weak receptor binding activity
[Tyr^34]bPTH(7-34)NH2,receptor binding / affinity,renal PTH receptors,moderate affinity
same,agonist activity,[3],does not have any agonist activity
"granulocyte colony-stimulating factor (protein, UniProt P09919 31-207, looked up, growth factor administered to augment recovery from chemotherapy-induced neutropenia) Granulocyte …: TPLGPASSLPQSFLLKCLEQVRKIQGDGAALQEKLVSECATYKLCHPEELVLLGHSLGIPWAPLSSCPSQALQLAGCLSQLHSGLFLYQGLLQALEGISPELGPTLDTLQLDVADFATTIWQQMEELGMAPALQPTQGAMPAFASAFQRRAGGVLVASHLQSFLEVSYRVLRHLAQP",neutrophils count (NE) following chemotherapy,peripheral blood cells,significant increases
same,white blood count (WBC) following chemotherapy,peripheral blood cells,significant increases
same,HSC pool in the bone marrow following chemotherapy,[4],significant depletion of the HSC pool
same,mobilization of HSCs into the peripheral circulation,[5],little to no mobilization

# From patent US8802104B2, “Parathyroid hormone receptor activation and stem and progenitor cell expansion” (The General Hospital Corporation, priority 2002, dated 2014)
